IC50 and EC50 data for 18 compounds are collected here from patent publication US20220153732A1, “PROTEIN SECRETION INHIBITORS” (KEZAR LIFE SCIENCES, priority 2019, published 2022).

Where two headings read alike, the source gives them in different places.

Usually EC50 stands for the midpoint of the concentration-response curve.

Assay type in all cases: cell-based
Experiment [1] concerns PD1-ss+10aa/Gaussia Luciferase. As to the kind of experiment: Dox-Induced PD1-ss-Gluc Assay. Put shortly: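 Stable cell line carrying PD1-ss+10aa/Gaussia luciferase cDNA under T-REx (doxycycline-inducible) control, plated the day before assay. Compound dilutions in DMSO/media containing doxycycline added and incubated at 37° C, 5% CO2. Undefined stereocentres: data refer to stereoisomer mixtures.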

In experiment [2] the test system is TNFα-FL/Gaussia Luciferase. As to the kind of experiment: Dox Induced TNFα-FL-Gluc Assay. Put shortly:
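A stable T-REx cell line carrying doxycycline-inducible TNFα-FL/Gaussia luciferase was plated the day before assay. Compound dilutions in DMSO/media containing doxycycline were then added and incubated at 37° C, 5% CO2.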

The test system of experiment [3] is HER3-ss+4aa/Gaussia Luciferase. As to the kind of experiment: Dox-Induced Her3-ss-Gluc Assay. Put shortly:
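Stable T-REx cell line carrying a doxycycline-regulated HER3-ss+4aa/Gaussia luciferase insert, plated the day before assay. Compound dilutions in DMSO/media with doxycycline added, then incubated at 37° C., 5% CO2. Stereoisomer mixtures tested where stereochemistry is not drawn.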

Experiment [4] deals with IL-2-FL/Gaussia Luciferase. As to the kind of experiment: Dox Induced IL2-FL-Gluc Assay. Put shortly: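 Stable T-REx cell line expressing doxycycline-inducible IL-2-FL/Gaussia luciferase cDNA, plated the day before assay. Compound dilutions in DMSO/media containing doxycycline added and incubated at 37° C., 5% CO2. Unspecified stereochemistry means data refer to a stereoisomer mixture.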

Experiment [5] concerns human multiple myeloma cell line U266B1. Put plainly: U266 Cell Viability Assay. The note with it: U-266, 48 hr, U266B1 cells, Celltiter-Glo, read-out: 48 hr U266 Viability Celltiter-Glo: Mean EC50. The essentials: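 U266B1 myeloma cells treated with compound dilutions in DMSO/media for 48 h at 37 °C, 5% CO2. Viability read by CellTiter-Glo luminescence. Stereochemically undefined structures were tested as stereoisomer mixtures.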

Experiment [6] relates to human multiple myeloma cell line NCI-H929. As to the kind of experiment: H929 Cell Viability Assay. The note with it: 48 hr, NCI-H929 cells, Celltiter-Glo, read-out: 48 hr H929 Viability Celltiter-Glo: Mean EC50. The protocol:
Plates were incubated at 37° C., 5% CO2 for 48 hours. After 48 hours, Celltiter-Glo® (Promega) was added to each well and luciferase signal was quantified using Tecan Infinite M1000 Pro for cell viability determination.
For chemical structures that include one or more stereoisomers, but are illustrated without indicating stereochemistry, the assay data refers to a mixture of stereoisomers.
(Cellular ATP, detected with luciferase, serves as a proxy for viable cell number.)

Setting [7] is: 24 hr doxycycline induction, 293FRT/TO cells, Gaussia luciferase signal; read-out: 24 hr Dox Inducible PD1ssGluc 293FRT/TO: Mean IC50.
The mark [8] stands for this setting: 24 hr doxycycline induction, 293FRT/TO cells, Gaussia luciferase signal; read-out: 24 hr Dox Inducible TNFaFLGluc 293FRT/TO: Mean IC50.
Where [9] appears, read: 24 hr doxycycline induction, 293FRT/TO cells, Gaussia luciferase signal; read-out: 24 hr Dox Inducible Her3(ss + 4)Gluc 293FRT/TO: Mean IC50.
Where [10] appears, read: 24 hr doxycycline induction, 293FRT/TO cells, Gaussia luciferase signal; read-out: 24 hr Dox Inducible IL2FLGIuc 293FRT/TO: Mean IC50.
The mark [11] stands for this setting: 24 hr, doxycycline-induced, 293FRT/TO cells; read-out: 24 hr Dox Inducible PD1ssGluc 293FRT/TO: Mean IC50.
Setting [12] is: 24 hr, doxycycline-induced, 293FRT/TO cells; read-out: 24 hr Dox Inducible TNFaFLGluc 293FRT/TO: Mean IC50.
Where [13] appears, read: 24 hr, doxycycline-induced, 293FRT/TO cells; read-out: 24 hr Dox Inducible Her3(ss + 4)Gluc 293FRT/TO: Mean IC50.
[14] abbreviates: 24 hr, doxycycline-induced, 293FRT/TO cells; read-out: 24 hr Dox Inducible IL2FLGIuc 293FRT/TO: Mean IC50.

Take `O=C(Nc1nc(N2CCCCC2)cs1)c1cccn1Cc1ccncc1` [Compound A264]: the IC50 in experiment [1] (setting [7]), in experiment [2] (setting [8]), in experiment [3] (setting [9]) and in experiment [4] (setting [10]) was more than 25 µM each time. The EC50 in experiment [5] and in experiment [6] was more than 25 µM throughout.
For the compound `CC(C)OC(C)(C)c1csc(NC(=O)c2cc(C(N)=O)cn2Cc2ccncc2)n1` [Compound A109, N2-(4-(2-isopropoxypropan-2-yl)thiazol-2-yl)-1-(pyridin-4-ylmethyl)-1H-pyrrole-2,4-dicarboxamide], the IC50 in experiment [1] (setting [7]), in experiment [2] (setting [8]), in experiment [3] (setting [9]) and in experiment [4] (setting [10]) was more than 25 µM in each case. Also, the EC50 in experiment [5] was more than 25 µM; in experiment [6] it was 19.5 µM.
Turning to `O=C(Nc1nc(C2CCC(c3ccccc3)O2)cs1)c1cccn1Cc1ccncc1` (stereo not drawn) [Compound A310, N-(4-(5-phenyltetrahydrofuran-2-yl)thiazol-2-yl)-1-(pyridin-4-ylmethyl)-1H-pyrrole-2-carboxamide], the IC50 turned out to be 2.12 µM in experiment [1] (read-out: 24 hr Dox Inducible PD1ssGluc 293FRT/TO: Mean IC50; 24 hr, doxycycline-induced, 293FRT/TO cells); 24.6 µM in experiment [2] (read-out: 24 hr Dox Inducible TNFaFLGluc 293FRT/TO: Mean IC50; 24 hr, doxycycline-induced, 293FRT/TO cells); 5.44 µM in experiment [3] (read-out: 24 hr Dox Inducible Her3(ss + 4)Gluc 293FRT/TO: Mean IC50; 24 hr, doxycycline-induced, 293FRT/TO cells); 6.99 µM in experiment [4] (read-out: 24 hr Dox Inducible IL2FLGIuc 293FRT/TO: Mean IC50; 24 hr, doxycycline-induced, 293FRT/TO cells). Moreover, the concentration for a half-maximal effect (EC50) in experiment [5] and in experiment [6] was more than 25 µM throughout.
As to `Cc1nc(NC(=O)c2cccn2Cc2ccncc2)sc1F` [Compound A42], the IC50 in experiment [1] (setting [7]) is 0.939 µM; in experiment [2] (setting [8]), more than 25 µM; in experiment [3] (setting [9]), 2.18 µM; in experiment [4] (setting [10]), 3.79 µM. Also, the 50% effective concentration (EC50) in experiment [5] and in experiment [6] was more than 25 µM in each case.
Turning to `Cc1cccc2sc(NC(=O)c3cccn3Cc3ccncc3)nc12` [Compound A46], the IC50 came out at 1.07 µM in experiment [1] (setting [7]), 17.8 µM in experiment [2] (setting [8]), 2.98 µM in experiment [3] (setting [9]) and 0.89 µM in experiment [4] (setting [10]). Besides, the EC50 in experiment [5] and in experiment [6] was more than 25 µM throughout.
For the compound `O=C(Nc1ncc(CCO)s1)c1cccn1Cc1ccncc1` [Compound A119], the IC50 in experiment [1] (setting [7]), in experiment [2] (setting [8]), in experiment [3] (setting [9]) and in experiment [4] (setting [10]) was more than 25 µM in each case. Besides, the EC50 in experiment [5] and in experiment [6] was more than 25 µM in each case.
In the case of `O=C(Nc1nc([C@H]2CCN2c2ccccc2)cs1)c1cccn1Cc1ccncc1` [Compound A336], the IC50 in experiment [1] (setting [11]) is 0.374 µM; in experiment [2] (setting [12]), 1.35 µM; in experiment [3] (setting [13]) it was 0.835 µM; in experiment [4] (setting [14]), 0.334 µM. Moreover, the concentration giving a half-maximal response (EC50) is more than 25 µM in experiment [5] and 17.9 µM in experiment [6].
With `Cc1ccc(/C=C/c2csc(NC(=O)c3cccn3Cc3ccncc3)n2)nc1` [Compound A357], the IC50 worked out at 0.012 µM in experiment [1] (setting [11]), 7.48 µM in experiment [2] (setting [12]), 2.31 µM in experiment [3] (setting [13]) and 9.07 µM in experiment [4] (setting [14]). Moreover, the EC50 in experiment [5] was found to be 17.9 µM; in experiment [6] it was 10.7 µM.
As to `O=C(Nc1nc(C2Cc3ccccc3C2)cs1)c1cccn1CCCc1ccncc1` [Compound A284], the IC50 amounted to 0.767 µM in experiment [1] (setting [7]), 4.07 µM in experiment [2] (setting [8]), 1.24 µM in experiment [3] (setting [9]) and 2.32 µM in experiment [4] (setting [10]). The results for the EC50 in experiment [5] and in experiment [6] were 6.1 µM and 4.92 µM, respectively.
Consider `O=C(Nc1nccs1)c1cccn1Cc1ccncc1` [Compound B6], for which the IC50 in experiment [1] (setting [11]) is 6.66 µM; in experiment [2] (setting [12]), more than 25 µM; in experiment [3] (setting [13]), more than 25 µM; in experiment [4] (setting [14]) it was more than 25 µM. In addition, the 50% effective concentration (EC50) in experiment [5] and in experiment [6] was more than 25 µM each time.
`CC(C)OC(C)(C)c1csc(NC(=O)c2ccnn2Cc2ccncc2)n1` [Compound A112, N-(4-(2-isopropoxypropan-2-yl)thiazol-2-yl)-1-(pyridin-4-ylmethyl)-1H-pyrazole-5-carboxamide]: the IC50 in experiment [1] (setting [7]), in experiment [2] (setting [8]), in experiment [3] (setting [9]) and in experiment [4] (setting [10]) was more than 25 µM in each case. For the same compound, the EC50 in experiment [5] and in experiment [6] was more than 25 µM each time.
As to `Cc1sc(NC(=O)c2cccn2Cc2ccncc2)nc1C1CC1` [Compound A47], the IC50 in experiment [1] (setting [7]) was 1.09 µM; in experiment [2] (setting [8]), 25 µM; in experiment [3] (setting [9]) it was 2.21 µM; in experiment [4] (setting [10]) it was 3.11 µM. The EC50 in experiment [5] and in experiment [6] was more than 25 µM in each case.
In the case of `CC(C)(CCc1ccccc1)c1csc(NC(=O)c2cccn2Cc2ccncc2)n1` [Compound A225, N-(4-(2-methyl-4-phenylbutan-2-yl)thiazol-2-yl)-1-(pyridin-4-ylmethyl)-1H-pyrrole-2-carboxamide], the IC50 turned out to be 0.324 µM in experiment [1] (setting [7]), 3.84 µM in experiment [2] (setting [8]), 0.558 µM in experiment [3] (setting [9]) and 0.486 µM in experiment [4] (setting [10]). Moreover, the values for the 50% effective concentration (EC50) in experiment [5] and in experiment [6] were more than 25 µM and 8.89 µM, respectively.
`O=C(Nc1nc([C@H]2[C@H](O)CCN2c2ccccc2)cs1)c1cccn1Cc1ccncc1` [Compound A351]: the IC50 was determined as 0.167 µM in experiment [1] (setting [11]), 0.954 µM in experiment [2] (setting [12]), 0.45 µM in experiment [3] (setting [13]) and 0.259 µM in experiment [4] (setting [14]). The EC50 is more than 25 µM in experiment [5] and 7.5 µM in experiment [6].
Regarding `COc1ccc(/C=C/c2csc(NC(=O)c3cccn3Cc3ccncc3)n2)c(F)c1` [Compound A241, N-(4-(2-fluoro-4-methoxystyryl)thiazol-2-yl)-1-(pyridin-4-ylmethyl)-1H-pyrrole-2-carboxamide], the IC50 worked out at 0.027 µM in experiment [1] (setting [7]), 1.31 µM in experiment [2] (setting [8]), 0.179 µM in experiment [3] (setting [9]) and 0.324 µM in experiment [4] (setting [10]). The concentration for a half-maximal effect (EC50) in experiment [5] was more than 25 µM; in experiment [6], 8.37 µM.
In the case of `CCc1cnccc1Cn1cccc1C(=O)Nc1nc(C(C)(C)OC(C)C)cs1` [Compound A250, 1-((3-ethylpyridin-4-yl)methyl)-N-(4-(2-isopropoxypropan-2-yl)thiazol-2-yl)-1H-pyrrole-2-carboxamide], the IC50 is 5.28 µM in experiment [1] (setting [7]), more than 25 µM in experiment [2] (setting [8]), 15.7 µM in experiment [3] (setting [9]) and 7.4 µM in experiment [4] (setting [10]). The EC50 in experiment [5] and in experiment [6] was more than 25 µM each time.
`CC(C)(OCC1CCCCO1)c1csc(NC(=O)c2cccn2Cc2ccncc2)n1` (stereo not drawn) [Compound A39, 1-(pyridin-4-ylmethyl)-N-(4-(2-((tetrahydro-2H-pyran-2-yl)methoxy)propan-2-yl)thiazol-2-yl)-1H-pyrrole-2-carboxamide]: the IC50 amounted to 0.723 µM in experiment [1] (setting [7]), 13.1 µM in experiment [2] (setting [8]), 1.49 µM in experiment [3] (setting [9]) and 1.34 µM in experiment [4] (setting [10]). For the same compound, the EC50 in experiment [5] and in experiment [6] was more than 25 µM each time.
Consider `CC(OC(C)(C)c1csc(NC(=O)c2cccn2Cc2ccncc2)n1)c1ccccc1Cl` (stereo not drawn) [Compound A8, N-(4-(2-(1-(2-chlorophenyl)ethoxy)propan-2-yl)thiazol-2-yl)-1-(pyridin-4-ylmethyl)-1H-pyrrole-2-carboxamide], for which the IC50 turned out to be 0.058 µM in experiment [1] (setting [7]), 0.42 µM in experiment [2] (setting [8]), 0.174 µM in experiment [3] (setting [9]) and 0.165 µM in experiment [4] (setting [10]). Also, the concentration giving a half-maximal response (EC50) in experiment [5] was determined as 7.87 µM; in experiment [6], 3.89 µM.
